# From US20150105252A1, “SUBSTITUTED PYRAZOLES AS HERBICIDES” (E I DU PONT DE NEMOURS AND COMPANY, priority 2013, published 2015)
# How the values were obtained:
# [1] = tested on: galium; assay: Test C postemergence; format: in vivo, Galium aparine; details: for Plant response rating (scale of 0 to 100 where 0 is no effect and 100 is complete control), Galium: Postemergence, 31 g ai/ha, visually evaluated after 13 to 15 days; for Galium plant response rating / Plant response rating, Galium: postemergence; for Galium plant response rating: 62 g ai/ha, scale 0 to 100
# Outline: (§1)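 Postemergence values come from plants sprayed at the 1- to 4-leaf stage (2–18 cm) in peat moss–vermiculite medium; preemergence values from seeds treated in a loam–sand blend. Both evaluated visually against controls after 13–15 greenhouse days, scale 0–100.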
# [2] = tested on: velvetleaf; assay: Test C postemergence; format: in vivo, Abutilon theophrasti; details: postemergence, 250 g ai/ha; scale 0 to 100 (0 no effect, 100 complete control)
# Outline: as §1
# [3] = tested on: barnyardgrass; assay: Test C postemergence; format: in vivo, Echinochloa crus-galli; details: for Plant response rating (scale of 0 to 100 where 0 is no effect and 100 is complete control), Barnyardgrass: Postemergence, 31 g ai/ha, visually evaluated after 13 to 15 days; for Barnyardgrass plant response rating / Plant response rating, Barnyardgrass: postemergence; for Barnyardgrass plant response rating: 62 g ai/ha, scale 0 to 100
# Outline: as §1
# [4] = tested on: soybean; assay: Test C postemergence; format: in vivo, Glycine max; details: postemergence; for Plant response rating, Soybean: 250 g ai/ha, scale 0 to 100 (0 no effect, 100 complete control); for Soybean plant response rating: 125 g ai/ha, scale 0 to 100, 0 no effect, 100 complete control
# Outline: as §1
# [5] = tested on: lambsquarters; assay: Test C postemergence; format: in vivo, Chenopodium album; details: for Plant response rating (scale of 0 to 100 where 0 is no effect and 100 is complete control), Lambsquarters: Postemergence, 31 g ai/ha, visually evaluated after 13 to 15 days; for Lambsquarters plant response rating / Plant response rating, Lambsquarters: postemergence; for Lambsquarters plant response rating: 62 g ai/ha, scale 0 to 100
# Outline: as §1
# [6] = tested on: chickweed; assay: Test C postemergence; format: in vivo, Stellaria media; details: for Plant response rating (scale of 0 to 100 where 0 is no effect and 100 is complete control), Chickweed: Postemergence, 31 g ai/ha, visually evaluated after 13 to 15 days; for Chickweed plant response rating / Plant response rating, Chickweed: postemergence; for Chickweed plant response rating: 62 g ai/ha, scale 0 to 100
# Outline: as §1
# [7] = tested on: kochia; assay: Test C postemergence; format: in vivo, Kochia scoparia; details: for Plant response rating (scale of 0 to 100 where 0 is no effect and 100 is complete control), Kochia: Postemergence, 31 g ai/ha, visually evaluated after 13 to 15 days; for Kochia plant response rating / Plant response rating, Kochia: postemergence; for Kochia plant response rating: 62 g ai/ha, scale 0 to 100
# Outline: as §1
# [8] = tested on: waterhemp; assay: Test C postemergence; format: in vivo, Amaranthus rudis; details: postemergence, 250 g ai/ha; scale 0 to 100 (0 no effect, 100 complete control)
# Outline: as §1
# [9] = tested on: morningglory; assay: Test C postemergence; format: in vivo, Ipomoea coccinea; details: for Plant response rating (scale of 0 to 100 where 0 is no effect and 100 is complete control), Morningglory: Postemergence, 31 g ai/ha, visually evaluated after 13 to 15 days; for Morningglory plant response rating / Plant response rating, Morningglory: postemergence; for Morningglory plant response rating: 62 g ai/ha, scale 0 to 100
# Outline: as §1
# [10] = tested on: pigweed; assay: Test C postemergence; format: in vivo, Amaranthus retroflexus; details: postemergence; for Pigweed plant response rating: 62 g ai/ha, scale 0 to 100
# Outline: as §1
# [11] = tested on: foxtail, giant; assay: Test C postemergence; format: in vivo, Setaria faberii; details: for Plant response rating (scale of 0 to 100 where 0 is no effect and 100 is complete control), Foxtail, Giant: Postemergence, 31 g ai/ha, visually evaluated after 13 to 15 days; for Foxtail, Giant plant response rating / Plant response rating, Foxtail, Giant: postemergence; for Foxtail, Giant plant response rating: 62 g ai/ha, scale 0 to 100
# Outline: as §1
# [12] = tested on: lambsquarters; assay: Test C preemergence; format: in vivo, Chenopodium album; details: preemergence; for Plant response rating, Lambsquarters: 125 g ai/ha, scale 0 to 100, 0 = no effect, 100 = complete control
# Outline: as §1
# [13] = tested on: nutsedge, yellow; assay: Test C postemergence; format: in vivo, Cyperus esculentus; details: for Plant response rating (scale of 0 to 100 where 0 is no effect and 100 is complete control), Nutsedge, Yellow: Postemergence, 31 g ai/ha, visually evaluated after 13 to 15 days; for Nutsedge, Yellow plant response rating / Plant response rating, Nutsedge, Yellow: postemergence; for Nutsedge, Yellow plant response rating: 62 g ai/ha, scale 0 to 100
# Outline: as §1
# [14] = tested on: oat, wild; assay: Test C postemergence; format: in vivo, Avena fatua; details: for Plant response rating (scale of 0 to 100 where 0 is no effect and 100 is complete control), Oat, Wild: Postemergence, 31 g ai/ha, visually evaluated after 13 to 15 days; for Oat, Wild plant response rating / Plant response rating, Oat, Wild: postemergence; for Oat, Wild plant response rating: 62 g ai/ha, scale 0 to 100
# Outline: as §1
# [15] = tested on: ryegrass, Italian; assay: Test C postemergence; format: in vivo, Lolium multiflorum; details: postemergence
# Outline: as §1
# [16] = tested on: ragweed; assay: Test C postemergence; format: in vivo, Ambrosia elation; details: postemergence
# Outline: as §1
# [17] = 250 g ai/ha, scale 0 to 100 (0 no effect, 100 complete control)
# [18] = 125 g ai/ha, scale 0 to 100, 0 no effect, 100 complete control
# [19] = 31 g ai/ha, visual rating, scale 0 to 100 (0 no effect, 100 complete control), 13 to 15 days
# [20] = 62 g ai/ha, scale 0 to 100 (0 no effect, 100 complete control), 13 to 15 days
# [21] = 250 g ai/ha, scale 0 to 100, 0 is no effect, 100 is complete control
smiles,measurement,setting,value
CCc1cc(C(=O)NCC2CC2)nn1Cc1ccnc(C(F)(F)F)c1 [Compound 199],"Plant response rating (scale of 0 to 100 where 0 is no effect and 100 is complete control), Galium",[1],60
same,Galium plant response rating,[1],70
same,"Plant response rating, Galium",[1]; [17],90
same,"Plant response rating, Galium",[1]; [18],80
same,"Plant response rating, Velvetleaf",[2],60
same,"Plant response rating (scale of 0 to 100 where 0 is no effect and 100 is complete control), Barnyardgrass",[3],10
same,Barnyardgrass plant response rating,[3],10
same,"Plant response rating, Barnyardgrass",[3]; [17],45
same,"Plant response rating, Barnyardgrass",[3]; [18],30
same,"Plant response rating, Soybean",[4],95
same,Soybean plant response rating,[4],75
same,"Plant response rating (scale of 0 to 100 where 0 is no effect and 100 is complete control), Lambsquarters",[5],25
same,Lambsquarters plant response rating,[5],85
same,"Plant response rating, Lambsquarters",[5]; [17],95
same,"Plant response rating, Lambsquarters",[5]; [18],70
same,"Plant response rating (scale of 0 to 100 where 0 is no effect and 100 is complete control), Chickweed",[6],70
same,Chickweed plant response rating,[6],60
same,"Plant response rating, Chickweed",[6]; [17],80
same,"Plant response rating, Chickweed",[6]; [18],80
same,"Plant response rating (scale of 0 to 100 where 0 is no effect and 100 is complete control), Kochia",[7],80
same,Kochia plant response rating,[7],85
same,"Plant response rating, Kochia",[7]; [17],95
same,"Plant response rating, Kochia",[7]; [18],90
same,"Plant response rating, Waterhemp",[8],75
same,"Plant response rating (scale of 0 to 100 where 0 is no effect and 100 is complete control), Morningglory",[9],30
same,Morningglory plant response rating,[9],50
same,"Plant response rating, Morningglory",[9]; [17],85
same,"Plant response rating, Morningglory",[9]; [18],60
same,Pigweed plant response rating,[10],60
same,"Plant response rating, Pigweed",[10]; [17],90
same,"Plant response rating, Pigweed",[10]; [18],75
same,"Plant response rating (scale of 0 to 100 where 0 is no effect and 100 is complete control), Foxtail, Giant",[11],10
same,"Foxtail, Giant plant response rating",[11],10
same,"Plant response rating, Foxtail, Giant",[11]; [17],50
same,"Plant response rating, Foxtail, Giant",[11]; [18],50
same,Lambsquarters plant response rating,[12]; [19],95
same,Lambsquarters plant response rating,[12]; [20],100
same,"Plant response rating, Lambsquarters",[12]; 13 to 15 days,100
same,Lambsquarters plant response rating,[12]; [21],98
same,"Plant response rating (scale of 0 to 100 where 0 is no effect and 100 is complete control), Nutsedge, Yellow",[13],5
same,"Nutsedge, Yellow plant response rating",[13],10
same,"Plant response rating, Nutsedge, Yellow",[13]; [17],20
same,"Plant response rating, Nutsedge, Yellow",[13]; [18],45
same,"Plant response rating (scale of 0 to 100 where 0 is no effect and 100 is complete control), Oat, Wild",[14],5
same,"Oat, Wild plant response rating",[14],10
same,"Plant response rating, Oat, Wild",[14]; [17],80
same,"Plant response rating, Oat, Wild",[14]; [18],30
same,"Plant response rating, Ryegrass, Italian",[15]; [17],10
same,"Plant response rating, Ryegrass, Italian",[15]; [18],10
same,"Plant response rating, Ragweed",[16]; [17],75
same,"Plant response rating, Ragweed",[16]; [18],20
CCc1cc(C(=O)NC2CC2)nn1Cc1ccnc(OCC(F)(F)F)c1 [Compound 200],"Plant response rating (scale of 0 to 100 where 0 is no effect and 100 is complete control), Galium",[1],50
same,Galium plant response rating,[1],50
same,"Plant response rating, Galium",[1]; [17],75
same,"Plant response rating, Galium",[1]; [18],75
same,"Plant response rating, Velvetleaf",[2],45
same,"Plant response rating (scale of 0 to 100 where 0 is no effect and 100 is complete control), Barnyardgrass",[3],0
same,Barnyardgrass plant response rating,[3],5
same,"Plant response rating, Barnyardgrass",[3]; [17],10
same,"Plant response rating, Barnyardgrass",[3]; [18],5
same,"Plant response rating, Soybean",[4],90
same,Soybean plant response rating,[4],90
same,"Plant response rating (scale of 0 to 100 where 0 is no effect and 100 is complete control), Lambsquarters",[5],55
same,Lambsquarters plant response rating,[5],65
same,"Plant response rating, Lambsquarters",[5]; [17],95
same,"Plant response rating, Lambsquarters",[5]; [18],65
same,"Plant response rating (scale of 0 to 100 where 0 is no effect and 100 is complete control), Chickweed",[6],75
same,Chickweed plant response rating,[6],75
same,"Plant response rating, Chickweed",[6]; [17],90
same,"Plant response rating, Chickweed",[6]; [18],90
same,"Plant response rating (scale of 0 to 100 where 0 is no effect and 100 is complete control), Kochia",[7],90
same,Kochia plant response rating,[7],90
same,"Plant response rating, Kochia",[7]; [17],90
same,"Plant response rating, Kochia",[7]; [18],90
same,"Plant response rating, Waterhemp",[8],85
same,"Plant response rating (scale of 0 to 100 where 0 is no effect and 100 is complete control), Morningglory",[9],65
same,Morningglory plant response rating,[9],65
same,"Plant response rating, Morningglory",[9]; [17],75
same,"Plant response rating, Morningglory",[9]; [18],75
same,Pigweed plant response rating,[10],60
same,"Plant response rating, Pigweed",[10]; [17],80
same,"Plant response rating, Pigweed",[10]; [18],75
same,"Plant response rating (scale of 0 to 100 where 0 is no effect and 100 is complete control), Foxtail, Giant",[11],5
same,"Foxtail, Giant plant response rating",[11],10
same,"Plant response rating, Foxtail, Giant",[11]; [17],15
same,"Plant response rating, Foxtail, Giant",[11]; [18],15
same,Lambsquarters plant response rating,[12]; [19],75
same,Lambsquarters plant response rating,[12]; [20],100
same,"Plant response rating, Lambsquarters",[12]; 13 to 15 days,100
same,Lambsquarters plant response rating,[12]; [21],100
same,"Plant response rating (scale of 0 to 100 where 0 is no effect and 100 is complete control), Nutsedge, Yellow",[13],0
same,"Nutsedge, Yellow plant response rating",[13],0
same,"Plant response rating, Nutsedge, Yellow",[13]; [17],10
same,"Plant response rating, Nutsedge, Yellow",[13]; [18],5
same,"Plant response rating (scale of 0 to 100 where 0 is no effect and 100 is complete control), Oat, Wild",[14],5
same,"Oat, Wild plant response rating",[14],10
same,"Plant response rating, Oat, Wild",[14]; [17],20
same,"Plant response rating, Oat, Wild",[14]; [18],10
same,"Plant response rating, Ryegrass, Italian",[15]; [17],15
same,"Plant response rating, Ryegrass, Italian",[15]; [18],15
same,"Plant response rating, Ragweed",[16]; [17],45
same,"Plant response rating, Ragweed",[16]; [18],45
